# Results from US20120251628A1, “COMPOSITIONS AND METHODS FOR TREATMENT OF CANCER” (priority 2011, published 2012).
# What was measured:
# HUVECs = assay: Apoptosis of HUVECs (Annexin-V FACS analysis); format: cell-based, Human
# Method: To determine the effect, if any, of sodium meta arsenite on vascularization, the effect on endothelial cells (which are essential for vascularization) was first analyzed. Human umbilical cord vein endothelial cells (HUVECs offered by ATCC) were cultivated in 96-well microculture plates containing F-12K (Sigma) medium supplemented with 10% FBS and endothelial cell growth supplement (ECGS, E2759, Sigma). For the cytotoxicity test of the cells after 24 hour cultivation, the cells were treated with KML001 at the concentration of 0.1 nM, 1 nM, 10 nM, 1 uM, 10 uM and 100 uM. At 24 hours and 48 hours after treatment, 20 μl/well of CellTiter 96® Aqueous One Solution (by Promega) Reagent was added on each well and reacted for one hour at 37° C. The reacted 96-well plates were measured at 490 nm using a spectrophotometer (UVStar, Greiner Bio-One). To analyze apoptosis of HUVECs, the cells were cultivated on F25 flasks using the same method as discussed above and then the cells were treated with sodium meta arsenite at a concentration of 10 uM, 20 uM and 50 uM. Cells were collected after 24 and 48 hours. The collected cells were stained for 30 minutes with Annexin-V for FACS analysis. After two washes, the cells were analyzed by using flow cytometry (FACSCALIBUR, BECTON DICLINSON).
# α-tubulin = assay: Western blot of isolated (soluble) and polymerized tubulin from HUVECs; format: cell-based, Human; details: 1 uM, 10 uM and 20 uM, 24 hours, higher concentration
# Description: To investigate whether such apoptosis phenomenon is caused by a cytoskeletal abnormality that affects cell division and cell differentiation, the change in α-tubulin expression in the cytoskeleton was identified by the division of tubulin into isolated form (soluble, S) and polymerized form (ppt, P). HUVECs (obtained from ATCC) were cultivated in F25 culture flasks containing F-12K (Sigma) medium supplemented with 10% FBS and endothelial cell growth supplement (ECGS, E2759, Sigma). After cultivation for 24 hours, the cells were treated with sodium meta arsenite at a concentration of 1 uM, 10 uM and 20 uM. Cells were collected 24 hours after treatment. The collected cells were suspended in RIPA buffer (50 mM Tris, pH 7.5, 150 mM NaCl, 1% NP-40, 0.5% sodium deoxychloate, 0.1% SDS, protease inhibitor) at room temperature for 10 minutes and then centrifuged for 30 minutes at 22° C. at 13,200 rpm to separate the supernatant liquid from the sediment. RIPA solution was added to the sediment in the same amount and the sediment was crushed using an ultrasonic cell crusher. The protein from the supernatant liquid and the sediment were assayed using a BCA protein kit (Thermo, 23227) and then the same amount of protein (3 μg) was mixed with protein sample buffer and it was warmed up in a water bath in boiling water at 100° C. for five minutes. SDS-PAGE was conducted on a 10% gel. […]
# tumors = assay: Cell and animal experiments with KML001 injected after tumors were generated; format: in vivo
# α-tubulin mRNA = assay: RT-PCR of tubulin mRNA from HUVECs; format: cell-based, Human; details: 5 uM, 10 uM and 20 uM, 24 hours and 48 hours after treatment
# Method: To determine whether the level of tubulin gene expression is responsible for the change in amount of tubulin protein observed in Example 5, RT-PCR was performed. HUVECs (obtained from ATCC) were cultivated in F25 culture flasks containing F-12K (Sigma) medium supplemented with 10% FBS and endothelial cell growth supplement (ECGS, E2759, Sigma). After cultivation for 24 hours, the cells were treated with sodium meta arsenite at concentrations of 5 uM, 10 uM and 20 uM. […] Total RNA was extracted using Trizol (Invitrogen, USA) and alcohol precipitation. 1 ug of total RNA was used for reverse transcriptase and dT was used for cDNA synthesis. The primer for synthesized cDNA and α-tubulin (sense: 5′-ATTGTGCCTTCATGGTAGAC-3′ (SEQ ID NO. 1), antisense: 5′-TTCTGTCAGGTCAACATTCA-3′) (SEQ ID NO. 2), the primer for β-tubulin (sense: 5′-AACGACCTCGTCTCTGAGTA-3′ (SEQ ID NO. 3), antisense: 5′-AATTCTGAGGGAGAGGAAAG-3′) (SEQ ID NO. 4) and GAPDH primer set (sense: 5′-ACCACTTTGTCAAGCTCATT-3′ (SEQ ID NO. 5), antisense: 5′-AGTGAGGGTCTCTCTCTTCC-3′) (SEQ ID No. 6) were used for denaturation at 95° C. for four minutes. After the reactions at 23 cycles at 95° C. for 30 seconds, at 52° C. for 30 seconds and at 72° C. for 40 seconds, PCR was performed at 72° C. for four minutes. The PCR product was confirmed by 1.5% agarose gel electrophoresis.
# [1] = test system: CT26 colon carcinoma cells; assay: Observation of necrosis in tumor tissues after treatment (tumor images); format: in vivo; details: 10 mg/kg intraperitoneal; discolored at 24 hours after injection; BALB/c mice
# Method: Seven-week-old, female, specific-pathogen-free (BALB/c) white mice (weight: approximately 20 g) purchased from ORIENTBIO Inc. (Seoul Korea) were subcutaneously injected with 2×10^6 of CT26 colon carcinoma cells per mouse. When the tumor size became 3 mm in diameter, the control group was injected with a phosphate buffered saline (PBS) solution with 5% dextrose while the experimental group was intraperitoneally injected with 100 μL of sodium meta arsenite at a concentration of 10 mg/kg with 5% dextrose. After injection, the measurements of the size of tumors (volume=πab^2/6, where a and b are diameters of tumors) by using the caliper once every two days and the images of the tumors were recorded for 15 days. While the discoloration of the tissues of the mice injected without sodium meta arsenite was not observed for a certain period of time, the central part of tumors in the tissues of the white mice injected with sodium meta arsenite became discolored at 24 hours after the injection of sodium meta arsenite. As time went by, it was observed that the tumors became discolored regardless of the injection of sodium meta arsenite.
# [2] = injected after tumors were generated
smiles,measurement,setting,value
O=[As][O-].[Na+] [sodium meta arsenite],"apoptosis, dependence on concentration","HUVECs; 10 uM, 20 uM and 50 uM","concentration dependent, increasing with increased concentration"
same,apoptosis over time,HUVECs; 24 and 48 hours exposure,increased over time
same,protein level in sediment (polymerized tubulin),α-tubulin,reduced the protein level
same,protein level in supernatant liquid (isolated tubulin),α-tubulin,reduced the protein level
same,apoptosis,tumors; cell experiments and animal experiments,occurred dose-dependently
same,necrotic phenomena in tumor tissues,tumors; [2],occurred
same,reduction in tumor volume,tumors; [2],no effect
same,α-tubulin mRNA levels,α-tubulin mRNA,no change
same,discoloration of the central part of tumors due to necrosis,[1],the tissues in the central part became discolored due to necrosis
